Measured values as given in ChEMBL document CHEMBL1201862, “PubChem BioAssay data set” (2004).
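Grown in 96-well plates, cells were treated for 48 hours with each compound at five concentrations. Insufficient inhibition: endpoint recorded as highest concentration tested. Abbreviation: GI50, concentration required for 50% inhibition of growth.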 Activity calls are given as the source filed them. No stated cut-off is given here; in the data, active = GI50 up to about 1.1 µM and inactive = higher.

Key:
Test in all cases: growth of human tumour cells (NCI), 48 h
OVCAR-4 = test system: OVCAR-4
HCT-15 = test system: HCT-15
CAKI-1 = test system: CAKI-1
EKVX = test system: EKVX
OVCAR-3 = test system: OVCAR-3
MDA-MB-435 = test system: MDA-MB-435
OVCAR-8 = test system: OVCAR-8
TK-10 = test system: TK-10
NCI/ADR-RES = test system: NCI/ADR-RES
SF-295 = test system: SF-295
HOP-62 = test system: HOP-62
SF-268 = test system: SF-268
LOX IMVI = test system: LOX IMVI
SNB-75 = test system: SNB-75
Malme-3M = test system: Malme-3M
UACC-62 = test system: UACC-62
U-251 = test system: U-251
OVCAR-5 = test system: OVCAR-5
ACHN = test system: ACHN
NCI-H522 = test system: NCI-H522
PC-3 = test system: PC-3
IGROV-1 = test system: IGROV-1
T47D = test system: T47D
MOLT-4 = test system: MOLT-4
CCRF-CEM = test system: CCRF-CEM
MDA-MB-231 = test system: MDA-MB-231
A549 = test system: A549
HCC 2998 = test system: HCC 2998
HCT-116 = test system: HCT-116
UACC-257 = test system: UACC-257
A498 = test system: A498
NCI-H460 = test system: NCI-H460
SR = test system: SR
786-0 = test system: 786-0
M14 = test system: M14
NCI-H23 = test system: NCI-H23
UO-31 = test system: UO-31
SK-MEL-28 = test system: SK-MEL-28
K562 = test system: K562
HT-29 = test system: HT-29
BT-549 = test system: BT-549
HOP-92 = test system: HOP-92
SN12C = test system: SN12C
SNB-19 = test system: SNB-19
Hs-578T = test system: Hs-578T
MDA-N = test system: MDA-N
DU-145 = test system: DU-145
SK-MEL-5 = test system: SK-MEL-5
NCI-H226 = test system: NCI-H226
RXF 393 = test system: RXF 393
SW-620 = test system: SW-620
KM12 = test system: KM12
SK-MEL-2 = test system: SK-MEL-2
SK-OV-3 = test system: SK-OV-3
COLO 205 = test system: COLO 205
RPMI-8226 = test system: RPMI-8226
MCF7 = test system: MCF7

For `c1ccc2c(CSCc3cccc4ccccc34)cccc2c1`, which GI50 (OVCAR-4) is on record?
Its GI50 is > 100 µM (inactive).

And the GI50 (HCT-15)?
Its GI50 is 1910 nM.

And the GI50 (CAKI-1)?
Its GI50 is > 100 µM (inactive).

What about the GI50 (EKVX) of the same molecule?
The GI50 was 46.8 µM (inactive).

And the GI50 (OVCAR-3)?
The GI50 was > 100 µM (inactive).

And the GI50 (MDA-MB-435)?
Its GI50 is > 100 µM (inactive).

What about the GI50 (OVCAR-8) of the same molecule?
The GI50 was > 100 µM (inactive).

What about the GI50 (TK-10) of the same molecule?
Its GI50 is > 100 µM (inactive).

And the GI50 (NCI/ADR-RES)?
The GI50 was > 100 µM (inactive).

And the GI50 (SF-295)?
The GI50 was > 100 µM (inactive).

What about the GI50 (HOP-62) of the same molecule?
The GI50 was > 100 µM (inactive).

What about the GI50 (SF-268) of the same molecule?
Its GI50 is > 100 µM (inactive).

What about the GI50 (LOX IMVI) of the same molecule?
The GI50 was > 100 µM (inactive).

And the GI50 (SNB-75)?
Its GI50 is > 100 µM (inactive).

And the GI50 (Malme-3M)?
The GI50 was 58.9 µM (inactive).

And the GI50 (UACC-62)?
Its GI50 is > 100 µM (inactive).

What about the GI50 (U-251) of the same molecule?
Its GI50 is 85.1 µM (inactive).

And the GI50 (OVCAR-5)?
The GI50 was > 100 µM (inactive).

And the GI50 (ACHN)?
Its GI50 is > 100 µM (inactive).

What about the GI50 (NCI-H522) of the same molecule?
The GI50 was 99.3 µM (inactive).

And the GI50 (PC-3)?
Its GI50 is 43.4 µM (inactive).

And the GI50 (IGROV-1)?
Its GI50 is 38.5 µM (inactive).

And the GI50 (T47D)?
The GI50 was 53.6 µM (inactive).

And the GI50 (MOLT-4)?
Its GI50 is 34.5 µM (inactive).

What about the GI50 (CCRF-CEM) of the same molecule?
Its GI50 is 3.5 µM (inactive).

What about the GI50 (MDA-MB-231) of the same molecule?
Its GI50 is > 100 µM (inactive).

What about the GI50 (A549) of the same molecule?
The GI50 was > 100 µM (inactive).

What about the GI50 (HCC 2998) of the same molecule?
Its GI50 is 50.8 µM (inactive).

What about the GI50 (HCT-116) of the same molecule?
Its GI50 is 57.5 µM (inactive).

And the GI50 (UACC-257)?
Its GI50 is 52.7 µM (inactive).

And the GI50 (A498)?
Its GI50 is > 100 µM (inactive).

And the GI50 (NCI-H460)?
Its GI50 is 43.4 µM (inactive).

What about the GI50 (SR) of the same molecule?
Its GI50 is 28.6 µM (inactive).

And the GI50 (786-0)?
Its GI50 is > 100 µM (inactive).

What about the GI50 (M14) of the same molecule?
The GI50 was > 100 µM (inactive).

And the GI50 (NCI-H23)?
Its GI50 is > 100 µM (inactive).

And the GI50 (UO-31)?
The GI50 was > 100 µM (inactive).

What about the GI50 (SK-MEL-28) of the same molecule?
The GI50 was > 100 µM (inactive).

And the GI50 (K562)?
Its GI50 is 76.7 µM (inactive).

What about the GI50 (HT-29) of the same molecule?
The GI50 was 40.2 µM (inactive).

What about the GI50 (BT-549) of the same molecule?
Its GI50 is > 100 µM (inactive).

What about the GI50 (HOP-92) of the same molecule?
Its GI50 is > 100 µM (inactive).

And the GI50 (SN12C)?
Its GI50 is > 100 µM (inactive).

And the GI50 (SNB-19)?
The GI50 was > 100 µM (inactive).

What about the GI50 (Hs-578T) of the same molecule?
Its GI50 is > 100 µM (inactive).

What about the GI50 (MDA-N) of the same molecule?
The GI50 was > 100 µM (inactive).

What about the GI50 (DU-145) of the same molecule?
Its GI50 is > 100 µM (inactive).

And the GI50 (SK-MEL-5)?
Its GI50 is 88.7 µM (inactive).

What about the GI50 (NCI-H226) of the same molecule?
The GI50 was > 100 µM (inactive).

And the GI50 (RXF 393)?
The GI50 was > 100 µM (inactive).

And the GI50 (SW-620)?
The GI50 was > 100 µM (inactive).

What about the GI50 (KM12) of the same molecule?
Its GI50 is > 100 µM (inactive).

What about the GI50 (SK-MEL-2) of the same molecule?
Its GI50 is > 100 µM (inactive).

`OCCN(CCO)c1ncnc2[nH]cnc12` was tested. Which GI50 (SK-OV-3) did it give?
Its GI50 is > 100 µM (inactive).

And the GI50 (OVCAR-4)?
Its GI50 is > 100 µM (inactive).

And the GI50 (HCT-15)?
The GI50 was over 100000 nM.

What about the GI50 (CAKI-1) of the same molecule?
The GI50 was > 100 µM (inactive).

What about the GI50 (EKVX) of the same molecule?
Its GI50 is 68.5 µM (inactive).

And the GI50 (OVCAR-3)?
Its GI50 is > 100 µM (inactive).

What about the GI50 (MDA-MB-435) of the same molecule?
The GI50 was > 100 µM (inactive).

What about the GI50 (COLO 205) of the same molecule?
Its GI50 is > 100 µM (inactive).

What about the GI50 (OVCAR-8) of the same molecule?
Its GI50 is > 100 µM (inactive).

And the GI50 (TK-10)?
Its GI50 is 67.1 µM (inactive).

What about the GI50 (NCI/ADR-RES) of the same molecule?
Its GI50 is > 100 µM (inactive).

And the GI50 (SF-295)?
Its GI50 is > 100 µM (inactive).

What about the GI50 (HOP-62) of the same molecule?
Its GI50 is > 100 µM (inactive).

What about the GI50 (SF-268) of the same molecule?
Its GI50 is > 100 µM (inactive).

And the GI50 (LOX IMVI)?
The GI50 was > 100 µM (inactive).

And the GI50 (Malme-3M)?
The GI50 was > 100 µM (inactive).

And the GI50 (UACC-62)?
The GI50 was > 100 µM (inactive).

What about the GI50 (U-251) of the same molecule?
Its GI50 is > 100 µM (inactive).

And the GI50 (OVCAR-5)?
Its GI50 is 60.8 µM (inactive).

And the GI50 (ACHN)?
Its GI50 is > 100 µM (inactive).

What about the GI50 (NCI-H522) of the same molecule?
Its GI50 is > 100 µM (inactive).

What about the GI50 (RPMI-8226) of the same molecule?
Its GI50 is > 100 µM (inactive).

What about the GI50 (PC-3) of the same molecule?
Its GI50 is > 100 µM (inactive).

What about the GI50 (IGROV-1) of the same molecule?
The GI50 was > 100 µM (inactive).

What about the GI50 (T47D) of the same molecule?
Its GI50 is > 100 µM (inactive).

What about the GI50 (MOLT-4) of the same molecule?
The GI50 was > 100 µM (inactive).

What about the GI50 (CCRF-CEM) of the same molecule?
The GI50 was > 100 µM (inactive).

And the GI50 (MDA-MB-231)?
Its GI50 is 80.9 µM (inactive).

And the GI50 (A549)?
Its GI50 is > 100 µM (inactive).

And the GI50 (HCC 2998)?
The GI50 was > 100 µM (inactive).

What about the GI50 (HCT-116) of the same molecule?
The GI50 was > 100 µM (inactive).

And the GI50 (UACC-257)?
Its GI50 is > 100 µM (inactive).

What about the GI50 (A498) of the same molecule?
The GI50 was > 100 µM (inactive).

And the GI50 (NCI-H460)?
Its GI50 is > 100 µM (inactive).

And the GI50 (786-0)?
Its GI50 is > 100 µM (inactive).

What about the GI50 (M14) of the same molecule?
The GI50 was > 100 µM (inactive).

And the GI50 (NCI-H23)?
Its GI50 is > 100 µM (inactive).

And the GI50 (UO-31)?
Its GI50 is 63.4 µM (inactive).

And the GI50 (SK-MEL-28)?
The GI50 was > 100 µM (inactive).

And the GI50 (K562)?
Its GI50 is > 100 µM (inactive).

What about the GI50 (HT-29) of the same molecule?
The GI50 was > 100 µM (inactive).

What about the GI50 (BT-549) of the same molecule?
Its GI50 is > 100 µM (inactive).

And the GI50 (HOP-92)?
The GI50 was > 100 µM (inactive).

And the GI50 (SN12C)?
The GI50 was > 100 µM (inactive).

What about the GI50 (SNB-19) of the same molecule?
Its GI50 is > 100 µM (inactive).

And the GI50 (Hs-578T)?
Its GI50 is 53.6 µM (inactive).

And the GI50 (MCF7)?
The GI50 was > 100 µM (inactive).

And the GI50 (MDA-N)?
The GI50 was > 100 µM (inactive).

And the GI50 (DU-145)?
Its GI50 is > 100 µM (inactive).

What about the GI50 (SK-MEL-5) of the same molecule?
The GI50 was > 100 µM (inactive).

What about the GI50 (NCI-H226) of the same molecule?
The GI50 was > 100 µM (inactive).

And the GI50 (RXF 393)?
The GI50 was > 100 µM (inactive).

What about the GI50 (SW-620) of the same molecule?
Its GI50 is > 100 µM (inactive).

What about the GI50 (KM12) of the same molecule?
The GI50 was > 100 µM (inactive).
